ChEMBL document CHEMBL6071182, “Design, Biological Characterization, and Discovery of Novel Cyclohexenyl Derivatives as Kinesin KIF18A Inhibitors for the Treatment of Ovarian Cancer” (ACS Med Chem Lett, 2024)
One block for each compound: values may come before it.

Columns and labels:
[1] = cells; settings: Homo sapiens, OVCAR-3, 96 h
Description: Antiproliferative activity against KIF18A siRNA sensitive human OVCAR-3 cells assessed as decrease in nuclei number measured after 4 days incubation by Hoechst 33342 DNA dye based nuclear count assay (NCA)

[2] = Cmax in Sprague-Dawley rat at 2 mg/kg, po and 1 mg/kg, iv; type: ADME, organism-based; settings: in vivo
[3] = Half life in Sprague-Dawley rat at 2 mg/kg, po and 1 mg/kg, iv; type: ADME, organism-based; settings: in vivo
[4] = Oral bioavailability in Sprague-Dawley rat at 2 mg/kg; type: ADME, organism-based; settings: in vivo
[5] = AUClast in Sprague-Dawley rat at 2 mg/kg, po and 1 mg/kg, iv; type: ADME, organism-based; settings: in vivo
[6] = biological target: T1, Kinesin-like protein KIF11 (Homo sapiens, UniProt P52732); assay: Inhibition of EG5 (unknown origin) assessed as luminescence measured after 135 mins by ADP-Glo motor assay
T1 sequence (P52732 whole entry): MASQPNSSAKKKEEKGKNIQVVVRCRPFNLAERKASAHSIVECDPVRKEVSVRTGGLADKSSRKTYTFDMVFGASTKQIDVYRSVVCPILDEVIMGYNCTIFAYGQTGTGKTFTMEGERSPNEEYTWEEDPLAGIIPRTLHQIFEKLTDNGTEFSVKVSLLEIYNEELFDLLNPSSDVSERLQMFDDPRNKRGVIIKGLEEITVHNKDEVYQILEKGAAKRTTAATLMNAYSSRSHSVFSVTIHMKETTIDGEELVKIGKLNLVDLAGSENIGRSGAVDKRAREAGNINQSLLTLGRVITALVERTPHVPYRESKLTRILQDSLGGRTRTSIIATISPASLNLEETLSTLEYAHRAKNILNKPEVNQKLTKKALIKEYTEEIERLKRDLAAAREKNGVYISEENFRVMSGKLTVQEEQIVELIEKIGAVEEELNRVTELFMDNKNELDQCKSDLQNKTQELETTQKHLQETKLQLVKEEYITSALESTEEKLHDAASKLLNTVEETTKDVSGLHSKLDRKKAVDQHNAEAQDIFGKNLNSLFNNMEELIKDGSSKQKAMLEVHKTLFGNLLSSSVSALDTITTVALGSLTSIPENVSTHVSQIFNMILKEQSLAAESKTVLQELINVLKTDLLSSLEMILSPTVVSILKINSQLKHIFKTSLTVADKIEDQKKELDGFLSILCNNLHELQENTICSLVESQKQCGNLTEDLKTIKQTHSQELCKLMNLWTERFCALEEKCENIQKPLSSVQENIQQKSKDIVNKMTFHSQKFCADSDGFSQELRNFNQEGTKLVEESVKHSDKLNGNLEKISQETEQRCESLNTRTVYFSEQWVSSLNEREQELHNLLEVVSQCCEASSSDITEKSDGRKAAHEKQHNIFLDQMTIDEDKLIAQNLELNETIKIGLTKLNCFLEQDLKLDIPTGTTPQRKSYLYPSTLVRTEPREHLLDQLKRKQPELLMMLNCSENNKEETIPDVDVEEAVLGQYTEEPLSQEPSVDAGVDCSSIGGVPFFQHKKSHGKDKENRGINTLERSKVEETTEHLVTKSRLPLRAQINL

[7] = tested on: BXPC-3; assay: Antiproliferative activity against human BxPC-3 cells assessed as chemiluminescence measured after 4 days incubation by Celltiter Glo assay; settings: BXPC-3, 96 h
[8] = Half life in Balb/c mouse at 30 mg/kg, po; type: ADME, organism-based; settings: in vivo
[9] = tested on: NUGC-3; assay: Antiproliferative activity against human NUGC-3 cells assessed as chemiluminescence measured after 4 days incubation by Celltiter Glo assay; settings: NUGC-3, 96 h
[10] = tested on: NCI-N87; assay: Antiproliferative activity against human NCI-N87 cells assessed as chemiluminescence measured after 4 days incubation by Celltiter Glo assay; settings: NCI-N87, 96 h
[11] = AUC in Balb/c mouse at 30 mg/kg, po; type: ADME, organism-based; settings: in vivo
[12] = Cmax in Balb/c mouse at 30 mg/kg, po; type: ADME, organism-based; settings: in vivo
[13] = biological target: T2, Kinesin-like protein KIF18A (Homo sapiens, UniProt Q8NI77); assay: Inhibition of human recombinant KIF18A (1 to 374) assessed as luminescence measured after 70 mins by ADP-Glo motor assay
T2 sequence (Q8NI77 whole entry): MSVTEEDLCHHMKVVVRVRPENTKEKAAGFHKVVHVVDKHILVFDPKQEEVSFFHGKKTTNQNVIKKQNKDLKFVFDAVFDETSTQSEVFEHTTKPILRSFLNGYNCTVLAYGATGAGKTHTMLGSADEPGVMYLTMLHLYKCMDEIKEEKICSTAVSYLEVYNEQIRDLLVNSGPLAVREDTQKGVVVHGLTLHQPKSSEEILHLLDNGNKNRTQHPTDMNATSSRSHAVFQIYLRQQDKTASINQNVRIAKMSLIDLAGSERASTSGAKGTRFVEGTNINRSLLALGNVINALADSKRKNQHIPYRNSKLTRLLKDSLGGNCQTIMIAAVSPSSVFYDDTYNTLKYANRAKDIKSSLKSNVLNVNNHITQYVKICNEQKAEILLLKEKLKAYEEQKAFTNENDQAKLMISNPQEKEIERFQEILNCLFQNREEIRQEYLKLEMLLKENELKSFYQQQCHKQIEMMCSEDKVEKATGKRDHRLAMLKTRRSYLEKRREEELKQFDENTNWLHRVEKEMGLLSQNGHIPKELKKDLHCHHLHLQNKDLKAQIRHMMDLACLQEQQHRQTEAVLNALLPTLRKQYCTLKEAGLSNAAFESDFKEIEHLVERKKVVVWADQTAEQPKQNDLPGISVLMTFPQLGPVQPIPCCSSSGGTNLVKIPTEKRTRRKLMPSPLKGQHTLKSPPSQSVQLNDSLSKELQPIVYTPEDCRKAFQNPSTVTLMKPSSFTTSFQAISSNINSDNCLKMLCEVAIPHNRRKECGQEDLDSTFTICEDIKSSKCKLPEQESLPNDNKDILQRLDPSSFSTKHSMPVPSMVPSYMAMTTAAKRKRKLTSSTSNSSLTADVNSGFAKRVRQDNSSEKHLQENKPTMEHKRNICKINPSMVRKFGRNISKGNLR

[14] = biological target: T2, Kinesin-like protein KIF18A; assay: Inhibition of human recombinant KIF18A (1 to 436) by ADP-Glo motor assay

EC50 [1]: > 10000 nM
Structure (SMILES): Cc1cc(NC(=O)c2ccc(NS(=O)(=O)CCO)cc2C2=CCN(C)CC2)nc(N2CCC(F)(F)CC2)n1

EC50 [1]: 1630 nM
Structure (SMILES): O=C(Nc1ccnc(N2CCC(F)(F)CC2)c1)c1ccc(NS(=O)(=O)CCO)cc1C1=CCC2(CC1)CC2

EC50 [1]: 138 nM
Structure (SMILES): Cc1cc(NC(=O)c2ccc(NS(=O)(=O)CCO)cc2C2=CCC3(CC2)CC3)nc(N2CC(F)(F)C2)n1

Cmax [2]: 424 ng/mL
half-life [3]: 4.7 h
bioavailability [4]: 67.9%
AUC(0-t) [5]: 3400 ng·h/mL
EC50 [1]: 40.5 nM
Structure (SMILES): O=C(Nc1ccc(F)c(N2CCC(F)(F)CC2)n1)c1ccc(NS(=O)(=O)CCO)cc1C1=CCC2(CC1)CC2

EC50 [1]: 206 nM
Structure (SMILES): O=C(Nc1ccnc(N2CCC(F)(F)CC2)c1F)c1ccc(NS(=O)(=O)CCO)cc1C1=CCC2(CC1)CC2

EC50 [1]: 1360 nM
Structure (SMILES): Cc1cc(NC(=O)c2ccc(NS(=O)(=O)CCO)cc2C2CCC3(CC2)CC3)nc(N2CCC(F)(F)CC2)n1

EC50 [1]: > 10000 nM
Structure (SMILES): Cc1cc(NC(=O)c2ccc(NS(=O)(=O)CCO)cc2-c2cnn(C)c2)nc(N2CCC(F)(F)CC2)n1

EC50 [1]: > 10000 nM
Structure (SMILES): Cc1cc(NC(=O)c2ccc(NS(=O)(=O)CCO)cc2NC2CCCCC2)nc(N2CCC(F)(F)CC2)n1

Cmax [2]: 140 ng/mL
half-life [3]: 1.2 h
bioavailability [4]: 22.9%
AUC(0-t) [5]: 322 ng·h/mL
EC50 [1]: 16.5 nM
Structure (SMILES): O=C(Nc1cncc(N2CCC(F)(F)CC2)n1)c1ccc(NS(=O)(=O)CCO)cc1C1=CCC2(CC1)CC2

Cmax [2]: 158 ng/mL
half-life [3]: 4.2 h
bioavailability [4]: 69.5%
IC50 [6]: > 30000 nM
AUC(0-t) [5]: 1610 ng·h/mL
EC50 [1]: 70.8 nM
Structure (SMILES): Cc1cc(NC(=O)c2ccc(NS(=O)(=O)CCO)cc2C2=CCC3(CC2)CC3)nc(N2CCC(F)(F)CC2)n1

EC50 [1]: 743 nM
Structure (SMILES): Cc1cc(NC(=O)c2ccc(NS(=O)(=O)CCO)cc2C2=CCC3(CC2)CC3)nc(N2CC3CC3C2)n1 (configuration not stated)

EC50 [1]: 465 nM
Structure (SMILES): Cc1cc(NC(=O)c2ccc(NS(=O)(=O)CCO)cc2N2C3CCC2CC2(CC2)C3)nc(N2CCC(F)(F)CC2)n1

IC50 [7]: 7450 nM
half-life [8]: 7.98 h
AUC [11]: 110000 ng·h/mL
EC50 [1]: 72.7 nM
Cmax [12]: 7040 ng/mL
Structure (SMILES): Cc1cc(NC(=O)c2ccc(NS(=O)(=O)CCO)cc2N2CCC3(CC2)CC3)nc(N2CCC(F)(F)CC2)n1 [AMG-650]
IC50 [9]: 111 nM
IC50 [10]: 7490 nM

EC50 [1]: 2090 nM
Structure (SMILES): Cc1cc(NC(=O)c2ccc(NS(=O)(=O)CCO)cc2N2CC3CC3C2)nc(N2CCC(F)(F)CC2)n1 (configuration not stated)

EC50 [1]: 186 nM
Structure (SMILES): Cc1cc(NC(=O)c2ccc(NS(=O)(=O)CCO)cc2C2=CCC3(CC2)CC3)nc(C2CCC(F)(F)CC2)n1

IC50 [13]: Not Active
EC50 [1]: 337 nM
Structure (SMILES): O=C(Nc1cccc(N2CCC(F)(F)CC2)c1)c1ccc(NS(=O)(=O)CCO)cc1C1=CCC2(CC1)CC2

Cmax [2]: 285 ng/mL
half-life [3]: 2.2 h
bioavailability [4]: 40.4%
AUC(0-t) [5]: 1340 ng·h/mL
EC50 [1]: 18.2 nM
Structure (SMILES): O=C(Nc1cccc(N2CCC(F)(F)CC2)n1)c1ccc(NS(=O)(=O)CCO)cc1C1=CCC2(CC1)CC2

IC50 [14]: 62 nM
Structure (SMILES): C[C@H]1CN(c2cccc(NC(=O)c3ccc(NS(=O)(=O)CCO)cc3N3CCC4(CC3)CC4)n2)CCO1

EC50 [1]: 577 nM
Structure (SMILES): Cc1cc(NC(=O)c2ccc(NS(=O)(=O)CCO)cc2C2=CCC3(CC2)CC3)nc(N2CCCC2)n1

IC50 [13]: Not Active
EC50 [1]: 308 nM
Structure (SMILES): Cc1cc(NC(=O)c2ccc(NS(=O)(=O)CCO)cc2C2=CCC3(CC2)CC3)cc(N2CCC(F)(F)CC2)c1

IC50 [14]: 71 nM
Structure (SMILES): Cc1cc(NC(=O)c2ccc(NS(=O)(=O)[C@H](C)CO)cc2N2CCC3(CC2)CC3)nc(N2CCC(F)(F)CC2)n1

EC50 [1]: 665 nM
Structure (SMILES): Cc1cc(NC(=O)c2ccc(NS(=O)(=O)CCO)cc2N2C3CCCC2CC3)nc(N2CCC(F)(F)CC2)n1
